Values quoted from earlier work in patent US8883408B2, “Tissue implants for implantation and methods of preparing the same” (CryoLife, Inc., priority 2010, dated 2014).

System: sensitive bacteria
Details: literature review

NCC[C@H](O)C(=O)N[C@@H]1C[C@H](N)[C@@H](O[C@H]2O[C@H](CN)[C@@H](O)[C@H](O)[C@H]2O)[C@H](O)[C@H]1O[C@H]1O[C@H](CO)[C@@H](O)[C@H](N)[C@H]1O [amikacin]
minimum inhibitory concentration against sensitive bacteria (MIC) range: 0.125 to 32 µg/mL
